# Test results published in paper PMC9785812 (Pharmaceutics, 2022).
# Values joined by “and” are separate entries in the source; they are usually repeats but may differ in a detail not shown here. Equal entries are not always repeated.
# What was measured:
# [1] = Ex vivo biodistribution in healthy BALB/c mice; parameters: species or system mouse
# Description: Quantification of activity was performed with an automated gamma counter equipped with a 3-in NaI(Tl) detector coupled to a multichannel analyzer (2480 Wizard^2, Perkin Elmer, Zaventem, Belgium). The results were corrected for background signal, physical decay during counting and detector dead time.
# All animal experiments were performed in compliance with the Ethical Committee Animal Studies of Medanex Clinic (EC MxCl 2020-163 and EC MxCl 2021-173), the Belgian laboratory animal legislation and the European Communities Council Directive of 22 September 2010 (2010/63/EU). Male BALB/c and NMRI nude mice were purchased from Janvier (Bio Services, Uden, The Netherlands) and housed in ventilated cages under standard laboratory conditions (12 h light/dark cycle) at the animal facility of SCK CEN. All animals had access to food and water ad libitum.
# Additionally, similar biodistribution studies were performed with free (unlabeled) [^153Sm]SmCl3 to identify the organs with ^153Sm accumulation in case of release from the complex. […] The mice were sacrificed by an overdose pentobarbital (200 µL of 60 mg/mL) 1, 4, 24 and 72 h post-injection (p.i.) (n = 3–4 per time point). Blood was collected via cardiac puncture. Organs of interest were collected in tared tubes and weighed. The activity in the different organs was measured in the gamma counter. For the calculation of the total activity in the blood, bone and muscle, the masses were assumed to be, respectively, 7, 12 and 40% of the total body mass. Data were expressed as a percentage of injected activity (%IA) and standardized uptake value (SUV). %IA was calculated as (counts per min (cpm) in organ)/(IA converted to cpm) × 100. SUV was calculated as (activity in cpm in organ/weight of organ in g)/(IA/total body weight in g).
# SSTR2 in CA20948 cells = details: cited from earlier work
# [2] = 1 h p.i., healthy male BALB/c mice, ~2-3 MBq i.v., mean ± SD, n = 3-4
# [3] = 4 h p.i., healthy male BALB/c mice, ~2-3 MBq i.v., mean ± SD, n = 3-4
# [4] = 24 h p.i., healthy male BALB/c mice, ~2-3 MBq i.v., mean ± SD, n = 3-4
# [5] = 72 h p.i., healthy male BALB/c mice, ~2-3 MBq i.v., mean ± SD, n = 3-4
# [6] = mouse, in vivo, iv, listed as [153Sm]SmCl3
smiles,measurement,setting,value
"[153Sm+3].[Cl-].[Cl-].[Cl-] [[^153Sm]SmCl3, reference compound]",Blood SUV,[1]; [2],2.0 ± 0.5
same,Heart SUV,[1]; [2],0.7 ± 0.2
same,Lungs %IA,[1]; [2],0.9 ± 0.2 %IA
same,Lungs SUV,[1]; [2],1.0 ± 0.2
same,Pancreas SUV,[1]; [2],0.2 ± 0.1
same,Stomach %IA,[1]; [2],0.5 ± 0.2 %IA
same,Bone %IA,[1]; [3],20.1 ± 6.7 %IA
same,Heart %IA,[1]; [3],0.2 ± 0.0 %IA
same,Intestines %IA,[1]; [3],1.7 ± 0.2 %IA
same,Stomach %IA,[1]; [3],0.2 ± 0.0 %IA
same,Blood %IA,[1]; [4],0.2 ± 0.0 %IA
same,Heart SUV,[1]; [4],0.2 ± 0.0
same,Intestines %IA,[1]; [4],1.0 ± 0.2 %IA
same,Lungs SUV,[1]; [4],0.2 ± 0.0
same,Stomach %IA,[1]; [4],0.2 ± 0.2 %IA
same,Lungs SUV,[1]; [5],0.2 ± 0.0
same,Muscle %IA,[1]; [5],0.9 ± 0.2 %IA
same,Stomach %IA,[1]; [5],0.2 ± 0.1 %IA
same,Bone SUV,"[1]; mouse, in vivo, iv",3.1 ± 1.3
same,Brain SUV,"[1]; mouse, in vivo, iv",0.0 ± 0.0
same,Liver SUV,"[1]; mouse, in vivo, iv",7.7 ± 1.8
same,Lungs SUV,"[1]; mouse, in vivo, iv",0.4 ± 0.0
same,Bone %IA,[1]; [6],12.1 ± 0.3 %IA and 17.6 ± 3.7 %IA and 21.9 ± 8.9 %IA
same,Bone SUV,[1]; [6],1.7 ± 0.0 and 2.9 ± 1.0 and 2.5 ± 0.5
same,Excreted %IA,[1]; [6],26.0 ± 8.0 %IA and 21.4 ± 3.9 %IA and 24.2 ± 4.2 %IA and 34.8 ± 11.6 %IA
same,Intestines %IA,[1]; [6],2.4 ± 0.5 %IA and 1.5 ± 0.5 %IA
same,Liver %IA,[1]; [6],35.9 ± 6.4 %IA and 54.3 ± 5.3 %IA and 53.9 ± 4.2 %IA and 42.9 ± 9.2 %IA
same,Liver SUV,[1]; [6],6.9 ± 0.5 and 11.2 ± 1.3 and 10.5 ± 0.8
O=C([O-])CN(CCN(CC(=O)[O-])CC(=O)[O-])CCN(CC(=O)[O-])CC(=O)[O-].[177Lu+3] [[^177Lu]Lu-DTPA],affinity towards SSTR2,SSTR2 in CA20948 cells,complete lack of affinity
